Experimental data published in the NIST ThermoML archive (doi:10.1016/j.tca.2013.03.017).

Columns and labels:
[1] = molar heat capacity at constant pressure; xn = mol fraction of the nth substance listed; settings: 101 kPa, Liquid, Small sample (50 mg) DSC
[2] = xn = mol fraction of the nth substance listed; settings: 101 kPa, Liquid, Hot wire method

O=S1(=O)CCCC1 [sulfolane] + O
Settings	molar heat capacity at constant pressure, [1] [J/K/mol]	thermal conductivity, [2] [W/m/K]
303.15 K, x1 = 0.1	87.62	0.3861
303.15 K, x1 = 0.198	99.49	0.296
303.15 K, x1 = 0.299	112	0.2563
303.15 K, x1 = 0.397	123.4	0.2358
303.15 K, x1 = 0.493	133.8	0.2206
303.15 K, x1 = 0.6	144.9	0.2028
303.15 K, x1 = 0.699	154.4	0.1911
303.15 K, x1 = 0.8	163.7	0.1809
303.15 K, x1 = 0.899	172.4	0.1739
303.15 K, x1 = 1	181.5	0.1678
313.15 K, x1 = 0.1	88.47	0.3969
313.15 K, x1 = 0.198	100.9	0.2979
313.15 K, x1 = 0.299	113.9	0.2583
313.15 K, x1 = 0.397	125.6	0.2334
313.15 K, x1 = 0.493	136.4	0.22
313.15 K, x1 = 0.6	148	0.2012
313.15 K, x1 = 0.699	157.9	0.1896
313.15 K, x1 = 0.8	167.2	0.1797
313.15 K, x1 = 0.899	176	0.1719
313.15 K, x1 = 1	185.1	0.1656
323.15 K, x1 = 0.1	89.1	0.4026
323.15 K, x1 = 0.198	102.2	0.2965
323.15 K, x1 = 0.299	115.3	0.2558
323.15 K, x1 = 0.397	127.5	0.2316
323.15 K, x1 = 0.493	138.8	0.2167
323.15 K, x1 = 0.6	150.6	0.1993
323.15 K, x1 = 0.699	160.9	0.1883
323.15 K, x1 = 0.8	170.9	0.1788
323.15 K, x1 = 0.899	179.7	0.1715
323.15 K, x1 = 1	188.7	0.1634
333.15 K, x1 = 0.1	89.75	0.4084
333.15 K, x1 = 0.198	103.6	0.295
333.15 K, x1 = 0.299	117.3	0.2507
333.15 K, x1 = 0.397	129.9	0.2304
333.15 K, x1 = 0.493	141.5	0.2133
333.15 K, x1 = 0.6	153.8	0.1986
333.15 K, x1 = 0.699	164.5	0.1876
333.15 K, x1 = 0.8	174.3	0.1779
333.15 K, x1 = 0.899	183.3	0.1699
333.15 K, x1 = 1	192.3	0.1616
343.15 K, x1 = 0.1	90.42	0.4085
343.15 K, x1 = 0.198	104.5	0.2893
343.15 K, x1 = 0.299	118.5	0.2417
343.15 K, x1 = 0.397	131.7	0.2229
343.15 K, x1 = 0.493	143.5	0.2092
343.15 K, x1 = 0.6	155.8	0.1966
343.15 K, x1 = 0.699	166.4	0.1852
343.15 K, x1 = 0.8	176.4	0.1765
343.15 K, x1 = 0.899	185.6	0.1676
343.15 K, x1 = 1	194.3	0.1593
353.15 K, x1 = 0.1	91.42	0.4058
353.15 K, x1 = 0.198	106.2	0.287
353.15 K, x1 = 0.299	120.8	0.2399
353.15 K, x1 = 0.397	134	0.2185
353.15 K, x1 = 0.493	146.1	0.204
353.15 K, x1 = 0.6	158.8	0.1921
353.15 K, x1 = 0.699	169.6	0.1817
353.15 K, x1 = 0.8	179.9	0.173
353.15 K, x1 = 0.899	189.2	0.1657
353.15 K, x1 = 1	197.8	0.1581
